Values after ≈ are worked out from the molar mass of the structure shown. Read-outs that look alike come from different tables or passages of the source.
Assays:
E.faecalis O2D2DU18 = assay: MIC micro-dilutions test; format: cell-based; conditions: Enterococcus faecalis
Description: (§1) Lately, these strains have proven increasingly to be problem strains, i.e., those microorganisms that have become resistant to existing antibiotics. The superiority of the present compound in relation to other antibiotics is shown, for example, in the inhibition of vancomycin- and teicoplanin-resistant strains such as, for example, E. faecalis, E. faecium or E. gallinarium.

E.faecalis O2D2HM9 = assay: MIC micro-dilutions test; format: cell-based; conditions: Enterococcus faecalis
Description: as §1

E.faecalis O2D2HT10 = assay: MIC micro-dilutions test; format: cell-based; conditions: Enterococcus faecalis
Description: as §1

E.faecalis O2D2UC5 = assay: MIC micro-dilutions test; format: cell-based; conditions: Enterococcus faecalis
Description: as §1

E.faecium O2D3AP9 = assay: MIC micro-dilutions test; format: cell-based; conditions: Enterococcus faecium
Description: as §1

E.faecium O2D3HM3 = assay: MIC micro-dilutions test; format: cell-based; conditions: Enterococcus faecium
Description: as §1

E.faecium O2D3HT12 = assay: MIC micro-dilutions test; format: cell-based; conditions: Enterococcus faecium
Description: as §1

E.faecium O2D3IP2 = assay: MIC micro-dilutions test; format: cell-based; conditions: Enterococcus faecium; E.faecium O2D3IP2, tei R van R ery R tet R; Gram-positive; read-out: Minimum Inhibition Concentration
Description: as §1

E.gallinarium O2D0HM8 = assay: MIC micro-dilutions test; format: cell-based; conditions: read-out: Minimum Inhibition Concentration
Description: as §1

S.aureus 011CB20 = assay: MIC micro-dilutions test; format: cell-based; conditions: Staphylococcus aureus
Description: as §1

S.aureus 011DU5 = assay: MIC micro-dilutions test; format: cell-based; conditions: Staphylococcus aureus
Description: as §1

S.aureus 011GO64 = assay: MIC micro-dilutions test; format: cell-based; conditions: Staphylococcus aureus
Description: as §1

S.aureus 011GO71 = assay: MIC micro-dilutions test; format: cell-based; conditions: Staphylococcus aureus
Description: as §1

S.aureus 011GR91 = assay: MIC micro-dilutions test; format: cell-based; conditions: Staphylococcus aureus
Description: as §1

S.aureus 011HT18 = assay: MIC micro-dilutions test; format: cell-based; conditions: Staphylococcus aureus
Description: as §1

S.aureus 011HT1 = assay: MIC micro-dilutions test; format: cell-based; conditions: Staphylococcus aureus
Description: as §1

S.aureus 011HT3 = assay: MIC micro-dilutions test; format: cell-based; conditions: Staphylococcus aureus
Description: as §1

S.milleri O2milGR12 = assay: MIC micro-dilutions test; format: cell-based; conditions: S.milleri O2milGR12, ery S van S; Gram-positive; read-out: Minimum Inhibition Concentration
Description: as §1

S.mitis O2mitGR16 = assay: MIC micro-dilutions test; format: cell-based; conditions: Streptococcus mitis
Description: as §1

S.pneumoniae 030BI2 = assay: MIC micro-dilutions test; format: cell-based; conditions: Streptococcus pneumoniae
Description: as §1

S.pyogenes O2A1FI6 = assay: MIC micro-dilutions test; format: cell-based; conditions: Streptococcus pyogenes
Description: as §1

S.pyogenes O2A1SJ1 = assay: MIC micro-dilutions test; format: cell-based; conditions: Streptococcus pyogenes
Description: as §1

S.pyogenes O2A1UC1 = assay: MIC micro-dilutions test; format: cell-based; conditions: Streptococcus pyogenes
Description: as §1

[1] = test system: Staph.coag.negative 012HT5; assay: MIC micro-dilutions test; format: cell-based; conditions: read-out: Minimum Inhibition Concentration
Description: as §1

Strepto gr.G O2G0CB2 = assay: MIC micro-dilutions test; format: cell-based; conditions: read-out: Minimum Inhibition Concentration
Description: as §1

P.aeruginosa 1771 391HT2 = assay: MIC micro-dilutions test; format: cell-based; conditions: Pseudomonas aeruginosa, 1771391HT2, Gram-negative, read-out: Minimum Inhibition Concentration
Description: as §1

[2] = test system: P.aeruginosa 1771m 391HT3; assay: MIC micro-dilutions test; format: cell-based; conditions: Pseudomonas aeruginosa, 1771M391HT3, read-out: Minimum Inhibition Concentration
Description: as §1

S.epidermidis 012GO20 = assay: MIC micro-dilutions test; format: cell-based; conditions: Staphylococcus epidermidis; S.epidermidis 012GO20, oxa S ery S tet R; Gram-positive; read-out: Minimum Inhibition Concentration
Description: as §1

S.epidermidis 012GO42 = assay: MIC micro-dilutions test; format: cell-based; conditions: Staphylococcus epidermidis; S.epidermidis 012GO42, oxa R; Gram-positive; read-out: Minimum Inhibition Concentration
Description: as §1

[3] = Physical-chemical characteristics: solubility; format: physicochemical; conditions: solvents: methanol, DMSO, pyridine
Description: The physical-chemical as well as the spectroscopic characteristics of the compound Amycomycin according to the invention are as follows: […]

[4] = test system: gram-positive bacteria such as Staphylo- and Enterococci; assay: Antibacterial activity; format: cell-based; conditions: particularly against gram-positive bacteria such as Staphylo- and Enterococci
Description: as §1

CN[C@H](CC(C)C)C(=O)N[C@H]1C(=O)N[C@@H](CC(N)=O)C(=O)N[C@H]2C(=O)N[C@H]3C(=O)N[C@H](C(=O)N[C@H](C(=O)O)c4cc(O)cc(O)c4-c4cc3ccc4O)[C@H](O)c3ccc(c(Cl)c3)Oc3cc2cc(c3O[C@@H]2O[C@H](CO)[C@@H](O)[C@H](O)[C@H]2O[C@H]2C[C@](C)(N)[C@H](O)[C@H](C)O2)Oc2ccc(cc2Cl)[C@H]1O [Vancomycin, reference compound]
MIC (E.faecalis O2D2DU18; O2D2DU18, read-out: Minimum Inhibition Concentration): 0.3 µg/mL (≈ 0.207 µM)
MIC (E.faecalis O2D2HM9; O2D2HM9, read-out: Minimum Inhibition Concentration): > 40 µg/mL
MIC (E.faecalis O2D2HT10; O2D2HT10, read-out: Minimum Inhibition Concentration): 0.6 µg/mL (≈ 0.414 µM)
MIC (E.faecalis O2D2UC5; ATCC29212, read-out: Minimum Inhibition Concentration): 2.5 µg/mL (≈ 1.73 µM)
MIC (E.faecium O2D3AP9; O2D3AP9, read-out: Minimum Inhibition Concentration): > 40 µg/mL
MIC (E.faecium O2D3HM3; O2D3HM3, read-out: Minimum Inhibition Concentration): > 40 µg/mL
MIC (E.faecium O2D3HT12; O2D3HT12, read-out: Minimum Inhibition Concentration): > 40 µg/mL
MIC (E.faecium O2D3IP2): > 40 µg/mL
MIC (E.gallinarium O2D0HM8): > 40 µg/mL
MIC (S.aureus 011CB20; 011CB20, read-out: Minimum Inhibition Concentration): 0.15 µg/mL (≈ 0.104 µM)
MIC (S.aureus 011DU5; 011DU5, read-out: Minimum Inhibition Concentration): 0.15 µg/mL (≈ 0.104 µM)
MIC (S.aureus 011GO64; 011GO64, read-out: Minimum Inhibition Concentration): 1.2 µg/mL (≈ 0.828 µM)
MIC (S.aureus 011GO71; 011GO71, read-out: Minimum Inhibition Concentration): 0.6 µg/mL (≈ 0.414 µM)
MIC (S.aureus 011GR91; 011GR91, read-out: Minimum Inhibition Concentration): 1.2 µg/mL (≈ 0.828 µM)
MIC (S.aureus 011HT18; ATCC13709, read-out: Minimum Inhibition Concentration): 0.3 µg/mL (≈ 0.207 µM)
MIC (S.aureus 011HT1; 011HT1, read-out: Minimum Inhibition Concentration): 0.08 µg/mL (≈ 0.0552 µM)
MIC (S.aureus 011HT3; 011HT3, read-out: Minimum Inhibition Concentration): 0.3 µg/mL (≈ 0.207 µM)
MIC (S.milleri O2milGR12): 0.3 µg/mL (≈ 0.207 µM)
MIC (S.mitis O2mitGR16; O2MITGR16, read-out: Minimum Inhibition Concentration): 0.3 µg/mL (≈ 0.207 µM)
MIC (S.pneumoniae 030BI2; 030BI2, read-out: Minimum Inhibition Concentration): 0.15 µg/mL (≈ 0.104 µM)
MIC (S.pyogenes O2A1FI6; O2A1FI6, read-out: Minimum Inhibition Concentration): 0.08 µg/mL (≈ 0.0552 µM)
MIC (S.pyogenes O2A1SJ1; O2A1SJ1, read-out: Minimum Inhibition Concentration): 0.15 µg/mL (≈ 0.104 µM)
MIC (S.pyogenes O2A1UC1; O2A1UC1, read-out: Minimum Inhibition Concentration): 0.15 µg/mL (≈ 0.104 µM)
MIC [1]: 0.6 µg/mL (≈ 0.414 µM)
MIC (Strepto gr.G O2G0CB2): 0.15 µg/mL (≈ 0.104 µM)

C/C(=C\CC(O)CC(O)CCC(C)C(O)C(C)C(O)CCCC(O)C(C)C(O)/C(C)=C/C(C)C(=O)/C(C)=C/C(O)C(O)CC(O)CC(O)C(C)CCC(O)CC(O)CCC(C)C(O)C(C)C(O)C(C)C)C(=O)C1=C(O)/C(=C/C(C)C)N(C)C1=O (stereo not drawn) [Amycomycin]
MIC (E.faecalis O2D2DU18; E.faecalis O2D2DU18, tet R nov R, Gram-positive, read-out: Minimum Inhibition Concentration): 1.2 µg/mL (≈ 1 µM)
MIC (E.faecalis O2D2HM9; E.faecalis O2D2HM9, nov R van B ery R tei S, Gram-positive, read-out: Minimum Inhibition Concentration): 2.5 µg/mL (≈ 2.09 µM)
MIC (E.faecalis O2D2HT10; E.faecalis O2D2HT10, nov R van S tet R, Gram-positive, read-out: Minimum Inhibition Concentration): 1.2 µg/mL (≈ 1 µM)
MIC (E.faecalis O2D2UC5; ATCC29212, E.faecalis O2D2UC5, ATCC 29212 nov R, Gram-positive, read-out: Minimum Inhibition Concentration): 2.5 µg/mL (≈ 2.09 µM)
MIC (E.faecium O2D3AP9; E.faecium O2D3AP9, nov S van R ery S tei R, Gram-positive, read-out: Minimum Inhibition Concentration): 0.6 µg/mL (≈ 0.501 µM)
MIC (E.faecium O2D3HM3; E.faecium O2D3HM3, nov S van A ery R tei R, Gram-positive, read-out: Minimum Inhibition Concentration): 1.2 µg/mL (≈ 1 µM)
MIC (E.faecium O2D3HT12; E.faecium O2D3HT12, tei R van R ery R tet R, Gram-positive, read-out: Minimum Inhibition Concentration): 0.6 µg/mL (≈ 0.501 µM)
MIC (E.gallinarium O2D0HM8; E.gallinarium O2D0HM8, van C tet R ery S, Gram-positive): 1.2 µg/mL (≈ 1 µM)
MIC (P.aeruginosa 1771 391HT2): > 40 µg/mL
MIC [2]: > 40 µg/mL
MIC (S.aureus 011CB20; S.aureus 011CB20, oxa R ery Rc tet R, Gram-positive, read-out: Minimum Inhibition Concentration): 0.08 µg/mL (≈ 0.0667 µM)
MIC (S.aureus 011DU5; S.aureus 011DU5, nov R tet R, Gram-positive, read-out: Minimum Inhibition Concentration): 0.08 µg/mL (≈ 0.0667 µM)
MIC (S.aureus 011GO64; S.aureus 011GO64, ofl R oxa R ery Rc tet R, Gram-positive, read-out: Minimum Inhibition Concentration): 0.3 µg/mL (≈ 0.25 µM)
MIC (S.aureus 011GO71; S.aureus 011GO71, ofl S oxa R ery S tet R, Gram-positive, read-out: Minimum Inhibition Concentration): 0.15 µg/mL (≈ 0.125 µM)
MIC (S.aureus 011GR91; S.aureus 011GR91, pri R oxa R ery R nov R, Gram-positive, read-out: Minimum Inhibition Concentration): 1.2 µg/mL (≈ 1 µM)
MIC (S.aureus 011HT18; ATCC13709, S.aureus 011HT18, ATCC 13709 Smith, Gram-positive, read-out: Minimum Inhibition Concentration): 0.08 µg/mL (≈ 0.0667 µM)
MIC (S.aureus 011HT1; S.aureus 011HT1, nov R, Gram-positive, read-out: Minimum Inhibition Concentration): ≤ 0.04 µg/mL
MIC (S.aureus 011HT3; S.aureus 011HT3, oxa S ery S, Gram-positive, read-out: Minimum Inhibition Concentration): 0.08 µg/mL (≈ 0.0667 µM)
MIC (S.epidermidis 012GO20): 0.3 µg/mL (≈ 0.25 µM)
MIC (S.epidermidis 012GO42): 0.3 µg/mL (≈ 0.25 µM)
MIC (S.mitis O2mitGR16; S.mitis O2mitGR16, ery Ri van S, Gram-positive, read-out: Minimum Inhibition Concentration): 1.2 µg/mL (≈ 1 µM)
MIC (S.pneumoniae 030BI2; S.pneumoniae 030BI2, ery R, Gram-positive, read-out: Minimum Inhibition Concentration): 0.15 µg/mL (≈ 0.125 µM)
MIC (S.pyogenes O2A1FI6; S.pyogenes O2A1FI6, ery R, Gram-positive, read-out: Minimum Inhibition Concentration): 0.6 µg/mL (≈ 0.501 µM)
MIC (S.pyogenes O2A1SJ1; S.pyogenes O2A1SJ1, van S ery Rc, Gram-positive, read-out: Minimum Inhibition Concentration): 0.3 µg/mL (≈ 0.25 µM)
MIC (S.pyogenes O2A1UC1; S.pyogenes O2A1UC1, van S ery S, Gram-positive, read-out: Minimum Inhibition Concentration): 0.6 µg/mL (≈ 0.501 µM)
MIC ([1]; Staph.coag.negative 012HT5, ofl R oxa R tet R, Gram-positive): 0.15 µg/mL (≈ 0.125 µM)
MIC (Strepto gr.G O2G0CB2; Strepto gr.G O2G0CB2, tet R rif R nov R, Gram-positive): 0.6 µg/mL (≈ 0.501 µM)
Solubility (Appearance) [3]: colorless solid, soluble in methanol, DMSO,
antibacterial activity [4]: extraordinary antibacterial activity

— patent publication US6642391B2, “Amycomycin, a process for its production and its use as a pharmaceutical” (priority 1999, dated 2003)
